In the assay the test system is polyubiquitin in the Golgi of HeLa cells. As to the kind of experiment: High content immunofluorescence microscopy of polyubiquitin in drug-treated cells. In kind it is cell-based, human. To be noted: drugs for 2 hrs (tunicamycin 5 μg/ml, monensin 2 mM, MG-132 40 μM), vs untreated. As for the experimental part:
HEK 293, IMR-90 and HeLa cells were grown in DMEM supplemented with 10% fetal bovine serum, 1% Penicillin/streptomycin and L-glutamine (2 mmole/liter) (Biological industries) at 37° C. with 5% CO2. Drugs were introduced to cells for 2 hrs at varying concentrations. Tunicamycin (Sigma) was given at 5 μg/ml. Treatment with the glycosylation inhibitor tunicamycin is known to cause accumulation of unfolded glycoproteins in the ER which is followed by […] of these aberrant proteins. […] Monensin (Enco scientific services) was given at 2 mM and MG-132 (Biotest) at 40 μM. Monensin is an antibiotic, commercially known as Golgi-stop. This drug inhibits the transport of proteins between the medial and trans-Golgi stacks thus also inhibiting phosphorylation, addition of galactose to glycoproteins and sulfation that occur in the trans-Golgi (Griffiths et al., 1983; Rosa et al., 1992). Cell death assessment was done by trypan blue staining and counted with Countess IFM automated cell counter (Thermo Fisher). Proliferation of mammalian cells was measured by XTT assay.
HeLa cells, grown on 96-well ‘cell carrier’ plates (Perkin Elmer) were fixed in 4% paraformaldehyde (Electron microscopy sciences) and permeabilized in 0.5% triton (sigma)—PBS (biological industries). Primary antibodies were introduced for 1 hr and secondary antibodies for 30 min, both in PBS-2% BSA. Hoechst staining (Sigma) was done per product protocol. Images were acquired using the ‘Operetta’ high content screening microscope at X40 magnification and analyzed by ‘Harmony’ software (Perkin Elmer).
Constitutive and Stress-Induced Ubiquitylation of Proteins Retained in the Golgi The bioinformatics analysis of the extent of ubiquitylation in the Golgi prompted us to confirm the prediction for Golgi ubiquitylation in live mammalian cells. To this end, a high content screening microscopy system was utilized to assess and quantify the levels of polyubiquitylation in the Golgi apparatus under various stress inducing drug treatments. For this assay, drugs known to induce cell stress by different pathways were selected. Immunofluorescence images of HeLa cells stained for the Golgi marker giantin and poly-ubiquitin show Golgi localized polyubiquitylated puncta, indicating a basal level of protein steady state polyubiquitylation in the Golgi (FIG. 3A). Proteasomal inhibition is known to cause the accumulation of polyubiquitylated proteins that are bound for proteasomal degradation in the cell (37).
Next, the present inventors examined whether or not this accumulation also occurs in the Golgi, following treatment with the proteasomal inhibitor MG-132. […] This increase in polyubiquitylated proteins in the Golgi points to the possibility that as in the case of ERAD, polyubiquitylated proteins that are bound for degradation accumulate in the Golgi as well as in the ER upon proteasomal inhibition. Treatment with the glycosylation inhibitor tunicamycin is known to cause accumulation of unfolded glycoproteins in the ER which is followed by poly-ubiquitylation and degradation of these aberrant proteins. […] Monensin is an antibiotic, commercially known as Golgi-stop. This drug inhibits the transport of proteins between the medial and trans-Golgi stacks thus also inhibiting phosphorylation, addition of galactose to glycoproteins and sulfation that occur in the trans-Golgi (40, 41). […]

Golgi-localized polyubiquitin data for one compound are collected here from patent publication US20200268707A1, “METHODS OF MODULATING PROTEIN EXOCYTOSIS AND USES OF SAME IN THERAPY” (Yeda Research and Development Co. Ltd., priority 2016, published 2020).

Turning to `CC[C@@]1([C@@H]2O[C@@H]([C@H]3O[C@@](O)(CO)[C@H](C)C[C@@H]3C)C[C@@H]2C)CC[C@H]([C@]2(C)CC[C@]3(C[C@H](O)[C@@H](C)[C@@H]([C@@H](C)[C@@H](OC)[C@H](C)C(=O)O)O3)O2)O1` [monensin], the Golgi-localized polyubiquitin entry was “increase in Golgi localized poly-ubiquitin, to slightly lower levels than those measured with tunicamycin”.
